Measurements reported in ChEMBL document CHEMBL1201862, “PubChem BioAssay data set” (2004).
Activity calls are given as the source filed them.

Tests used:
[1] = cytotoxicity in HEK-293T cells, dose response, cytotoxicity control for BCR NF-kB inhibitor project, luminescence, B-cell screen hits (AID 489021); type: functional, cell-based;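 further: HEK-293T cells carrying an NF-kB luciferase reporter; cells exposed to compound for about 14 hours before viability readout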
[2] = tested on: Streptococcus sp. 'group A'; assay: growth inhibition of control SK(-) GAS strain, dose response, counter-screen for streptokinase expression inhibitor project, luminescence, kanamycin, BacTiterGlo, confirmation (AID 1900); type: functional, organism-based
[3] = microbe, parasite or virus in culture; type: functional; details: Mycobacterium tuberculosis
[4] = tested on: Streptococcus; assay: Group A Streptococcus viability loss, dose response, counter-screen for streptokinase expression inhibitor project, luminescence, BacTiterGlo (AID 1915); type: functional, organism-based;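 further: potency for reduction of bacterial viability or growth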
[5] = biological target: T1, Streptokinase A (Streptococcus pyogenes serotype M1, UniProt P10520); assay: S. pyogenes streptokinase expression inhibitors, potency, dose response, plasminogen activation absorbance, OD405 (AID 1914); type: functional, Streptococcus pyogenes M1 GAS;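 further: secreted streptokinase activity via plasminogen activation per viability signal from cell pellet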
T1 sequence (P10520 whole entry): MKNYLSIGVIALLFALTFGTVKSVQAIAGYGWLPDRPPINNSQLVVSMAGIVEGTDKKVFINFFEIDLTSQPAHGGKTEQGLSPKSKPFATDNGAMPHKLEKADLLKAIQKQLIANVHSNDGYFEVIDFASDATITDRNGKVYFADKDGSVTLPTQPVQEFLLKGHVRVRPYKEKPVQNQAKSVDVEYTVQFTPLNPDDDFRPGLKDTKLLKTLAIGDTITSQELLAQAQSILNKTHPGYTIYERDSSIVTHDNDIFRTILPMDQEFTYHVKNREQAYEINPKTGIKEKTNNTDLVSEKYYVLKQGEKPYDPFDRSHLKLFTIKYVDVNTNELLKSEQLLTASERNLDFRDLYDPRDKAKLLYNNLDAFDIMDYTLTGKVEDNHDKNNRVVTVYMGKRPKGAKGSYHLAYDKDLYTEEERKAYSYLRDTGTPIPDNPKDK

[6] = Luminescence Cell-Based Dose Retest to Confirm Inhibitors of Cancer Stem Cells. [Related pubchem assays (depositor defined):AID2717, AID2721]; type: functional; details: Homo sapiens
[7] = biological target: Heat shock protein HSP 90-alpha (Homo sapiens, UniProt P07900); type: functional, organism-based
[8] = biological target: T2, Coagulation factor XII (Homo sapiens, UniProt P00748); type: functional;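 further: activated factor XIIa alpha cleaving a fluorogenic AMC peptide substrate; inhibitor potency from loss of enzyme activity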
T2 sequence (P00748 whole entry): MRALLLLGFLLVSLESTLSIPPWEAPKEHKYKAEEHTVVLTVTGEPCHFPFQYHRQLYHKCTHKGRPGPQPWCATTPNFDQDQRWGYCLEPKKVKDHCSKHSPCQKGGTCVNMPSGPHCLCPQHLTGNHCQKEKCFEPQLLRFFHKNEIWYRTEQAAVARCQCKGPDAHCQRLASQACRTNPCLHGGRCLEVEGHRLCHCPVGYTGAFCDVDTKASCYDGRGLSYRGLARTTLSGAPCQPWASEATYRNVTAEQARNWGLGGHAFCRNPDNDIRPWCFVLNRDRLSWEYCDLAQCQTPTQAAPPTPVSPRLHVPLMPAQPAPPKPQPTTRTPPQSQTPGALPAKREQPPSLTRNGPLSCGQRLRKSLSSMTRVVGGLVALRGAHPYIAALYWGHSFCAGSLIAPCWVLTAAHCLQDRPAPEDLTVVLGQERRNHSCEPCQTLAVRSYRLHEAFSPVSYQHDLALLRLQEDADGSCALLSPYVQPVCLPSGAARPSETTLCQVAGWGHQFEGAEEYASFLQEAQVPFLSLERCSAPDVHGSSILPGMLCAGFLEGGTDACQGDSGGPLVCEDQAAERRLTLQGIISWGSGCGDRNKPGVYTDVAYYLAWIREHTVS

[9] = biological target: Cytochrome P450 3A4 (Homo sapiens, UniProt P08684);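 further: CYP3A4 tested as one member of a cytochrome P450 panel screen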
Cytochrome P450 3A4, sequence (P08684 whole entry): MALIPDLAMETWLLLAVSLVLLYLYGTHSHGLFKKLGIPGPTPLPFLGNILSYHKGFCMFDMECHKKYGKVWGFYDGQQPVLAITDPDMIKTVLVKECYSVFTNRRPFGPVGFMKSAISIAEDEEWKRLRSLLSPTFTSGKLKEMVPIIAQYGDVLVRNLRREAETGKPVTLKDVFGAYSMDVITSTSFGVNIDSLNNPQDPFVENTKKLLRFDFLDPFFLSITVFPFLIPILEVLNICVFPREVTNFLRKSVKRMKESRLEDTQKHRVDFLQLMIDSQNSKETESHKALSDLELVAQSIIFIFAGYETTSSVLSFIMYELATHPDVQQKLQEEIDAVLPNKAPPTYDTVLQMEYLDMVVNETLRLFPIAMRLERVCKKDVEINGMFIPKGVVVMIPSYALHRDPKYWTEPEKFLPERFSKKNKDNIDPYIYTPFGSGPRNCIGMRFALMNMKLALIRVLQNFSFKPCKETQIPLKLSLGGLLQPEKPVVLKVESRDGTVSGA

[10] = biological target: Cytochrome P450 2C9 (Homo sapiens, UniProt P11712)
Cytochrome P450 2C9, sequence (P11712 whole entry): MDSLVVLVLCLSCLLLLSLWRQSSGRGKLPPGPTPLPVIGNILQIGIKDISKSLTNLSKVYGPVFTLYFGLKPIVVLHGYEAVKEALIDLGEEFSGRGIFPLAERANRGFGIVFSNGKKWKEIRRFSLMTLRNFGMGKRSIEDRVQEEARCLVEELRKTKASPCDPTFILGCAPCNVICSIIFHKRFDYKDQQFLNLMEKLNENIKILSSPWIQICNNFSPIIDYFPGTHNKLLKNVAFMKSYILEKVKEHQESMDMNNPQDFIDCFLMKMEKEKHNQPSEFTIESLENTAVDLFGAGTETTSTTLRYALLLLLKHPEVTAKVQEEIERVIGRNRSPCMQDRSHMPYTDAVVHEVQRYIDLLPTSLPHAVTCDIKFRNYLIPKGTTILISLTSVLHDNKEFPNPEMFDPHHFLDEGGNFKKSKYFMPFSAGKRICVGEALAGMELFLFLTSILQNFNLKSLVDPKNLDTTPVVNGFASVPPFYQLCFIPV

[11] = biological target: T3, Cytochrome P450 1A2 (Homo sapiens, UniProt P05177);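 further: PubChem cytochrome P450 panel assay, CYP1A2 panel member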
T3 sequence (P05177 whole entry): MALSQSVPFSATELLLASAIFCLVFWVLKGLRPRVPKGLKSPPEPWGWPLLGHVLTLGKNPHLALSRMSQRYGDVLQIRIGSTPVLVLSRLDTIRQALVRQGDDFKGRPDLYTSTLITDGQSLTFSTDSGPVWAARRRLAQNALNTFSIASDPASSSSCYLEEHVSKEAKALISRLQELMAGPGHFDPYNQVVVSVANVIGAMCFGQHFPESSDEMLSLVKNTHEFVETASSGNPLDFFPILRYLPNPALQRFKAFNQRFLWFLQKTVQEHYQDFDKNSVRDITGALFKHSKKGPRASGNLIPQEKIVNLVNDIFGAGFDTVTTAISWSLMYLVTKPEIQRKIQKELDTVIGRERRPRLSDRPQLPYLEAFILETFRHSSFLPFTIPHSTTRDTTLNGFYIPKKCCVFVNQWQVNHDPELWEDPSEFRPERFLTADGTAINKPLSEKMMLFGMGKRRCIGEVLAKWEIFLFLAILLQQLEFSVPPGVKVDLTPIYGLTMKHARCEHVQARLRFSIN

[12] = human group III sPLA2 inhibitors, dose response, biochemical, QFRET, IC50 (AID 743457);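 further: green fluorescence rise as the enzyme cleaves BODIPY PC-A2 in liposomes; potency for inhibition of the enzyme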
[13] = biological target: Mu-type opioid receptor (Homo sapiens, UniProt P35372); type: functional, cell-based;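 further: U2OS cells with beta-arrestin recruitment to OPRM1 by beta-gal complementation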
Mu-type opioid receptor, sequence (P35372 whole entry): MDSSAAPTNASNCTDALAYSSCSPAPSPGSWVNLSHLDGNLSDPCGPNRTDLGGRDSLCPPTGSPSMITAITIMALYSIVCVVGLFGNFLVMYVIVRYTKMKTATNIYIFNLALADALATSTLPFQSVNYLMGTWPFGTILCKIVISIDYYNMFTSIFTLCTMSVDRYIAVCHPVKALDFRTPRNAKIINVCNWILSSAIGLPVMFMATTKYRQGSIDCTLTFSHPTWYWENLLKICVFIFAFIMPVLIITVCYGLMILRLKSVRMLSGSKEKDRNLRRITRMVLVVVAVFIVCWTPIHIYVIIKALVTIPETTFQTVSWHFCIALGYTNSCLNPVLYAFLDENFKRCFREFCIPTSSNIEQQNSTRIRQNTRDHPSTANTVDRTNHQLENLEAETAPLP

[14] = biological target: 5-hydroxytryptamine receptor 2A (Mus musculus, UniProt P35363); type: functional, cell-based;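 further: CHO-K1 cells with tagged receptor and beta-arrestin; agonist potency measured as compound-induced activation of the receptor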
5-hydroxytryptamine receptor 2A, sequence (P35363 whole entry): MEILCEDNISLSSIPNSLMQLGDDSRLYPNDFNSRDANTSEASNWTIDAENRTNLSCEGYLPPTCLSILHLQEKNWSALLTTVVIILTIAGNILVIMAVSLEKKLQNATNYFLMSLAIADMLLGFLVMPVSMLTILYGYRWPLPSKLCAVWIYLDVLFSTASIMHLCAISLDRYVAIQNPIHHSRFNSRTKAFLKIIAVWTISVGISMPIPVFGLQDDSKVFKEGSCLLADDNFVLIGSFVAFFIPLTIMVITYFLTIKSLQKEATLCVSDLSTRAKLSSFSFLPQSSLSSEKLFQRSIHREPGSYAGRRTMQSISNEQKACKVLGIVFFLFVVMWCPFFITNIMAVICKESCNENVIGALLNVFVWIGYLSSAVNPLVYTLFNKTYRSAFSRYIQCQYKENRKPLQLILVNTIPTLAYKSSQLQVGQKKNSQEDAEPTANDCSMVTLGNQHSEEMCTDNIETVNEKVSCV

[15] = HepG2 cell cytotoxicity, dose response, cytotoxicity control for Shn3 inhibitor project, CellTiter-Glo, cherry-picked (AID 624134); type: functional, cell-based
[16] = Shn3 3'UTR reporter inhibitors, dose response, cell-based, Clone20 osteoblasts, firefly luciferase, cherry-picked (AID 624132); type: functional;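 further: firefly luciferase luminescence from reporter carrying the Shn3 3'UTR in osteoblasts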
[17] = control 3'UTR Renilla luciferase suppression, dose response, counter-screen for Shn3 inhibitor project, cell-based, Clone20-Shn3RL, cherry-picked (AID 624133); type: functional
[18] = cells; type: functional
[19] = inhibitors of clade B AD8 Env fusion, dose response, cell-based, cherry-pick (AID 652062); type: functional;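 further: luciferase signal from cell-cell fusion driven by HIV-1 clade B AD8 Env; potency is for inhibitors of fusion seen as a drop in luminescence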
[20] = ZM109 Env clade C HIV-1 fusion inhibitors, dose response, HeLa effector, CEM target cells, luciferase, cherry-pick (AID 652058); type: functional, cell-based
[21] = CRF-BP/CRF-R2 complex antagonists, dose response, cell-based, uHTS hits, 384-well (AID 651639); type: functional, Homo sapiens; details: read-out: IC50_Mean
[22] = biological target: T4, Mannose-6-phosphate isomerase (Homo sapiens, UniProt P34949); assay: human PMI inhibitors, high substrate, primary screen, biochemical, fluorescence intensity, high mannose 6-phosphate (AID 1220)
T4 sequence (P34949 whole entry): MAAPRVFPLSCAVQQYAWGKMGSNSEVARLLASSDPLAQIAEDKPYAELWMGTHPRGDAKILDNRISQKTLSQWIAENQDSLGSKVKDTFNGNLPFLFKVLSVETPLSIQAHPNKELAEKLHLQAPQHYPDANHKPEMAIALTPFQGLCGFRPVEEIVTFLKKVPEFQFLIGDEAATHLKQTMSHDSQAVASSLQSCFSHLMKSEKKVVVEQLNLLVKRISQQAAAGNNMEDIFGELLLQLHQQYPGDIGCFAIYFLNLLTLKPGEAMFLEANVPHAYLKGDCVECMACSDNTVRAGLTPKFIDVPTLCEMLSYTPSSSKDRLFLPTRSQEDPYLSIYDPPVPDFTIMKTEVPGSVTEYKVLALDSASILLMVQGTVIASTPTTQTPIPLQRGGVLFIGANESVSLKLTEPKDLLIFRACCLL

[23] = biological target: T5, Corticotropin-releasing factor receptor 2/Corticotropin-releasing factor-binding protein (Homo sapiens, UniProt P24387+Q13324); assay: Dose Response confirmation of uHTS hits for small molecule antagonists of the CRF-binding protein and CRF-R2 receptor complex.; type: functional; details: read-out: IC50_Mean
T5 sequence (Q13324 whole entry): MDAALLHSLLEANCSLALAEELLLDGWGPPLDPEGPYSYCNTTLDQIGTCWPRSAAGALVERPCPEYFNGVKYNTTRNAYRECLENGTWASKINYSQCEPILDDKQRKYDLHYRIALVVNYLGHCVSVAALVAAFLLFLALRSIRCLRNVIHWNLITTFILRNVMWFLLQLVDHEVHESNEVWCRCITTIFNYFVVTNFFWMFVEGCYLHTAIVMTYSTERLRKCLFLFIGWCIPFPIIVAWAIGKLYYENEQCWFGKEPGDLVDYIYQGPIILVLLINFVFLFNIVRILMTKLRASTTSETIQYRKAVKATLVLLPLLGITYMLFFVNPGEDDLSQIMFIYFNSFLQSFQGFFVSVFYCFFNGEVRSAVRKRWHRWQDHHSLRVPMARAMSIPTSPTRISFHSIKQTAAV
T5 sequence (P24387 whole entry): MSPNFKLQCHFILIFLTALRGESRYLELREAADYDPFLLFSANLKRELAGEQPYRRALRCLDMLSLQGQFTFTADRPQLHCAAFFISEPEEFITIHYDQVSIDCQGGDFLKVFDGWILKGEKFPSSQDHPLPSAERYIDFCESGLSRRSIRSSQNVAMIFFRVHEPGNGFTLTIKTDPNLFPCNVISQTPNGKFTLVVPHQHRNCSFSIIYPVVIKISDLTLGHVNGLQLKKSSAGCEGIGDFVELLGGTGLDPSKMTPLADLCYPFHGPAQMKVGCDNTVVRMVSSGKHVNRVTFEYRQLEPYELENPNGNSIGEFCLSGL

[24] = biological target: T5, Corticotropin-releasing factor receptor 2/Corticotropin-releasing factor-binding protein; assay: activators of CRF receptor 2 with binding protein – uHTS hits, confirmation (AID 602473); type: functional; details: read-out: EC50_Mean
[25] = off-target signal loss in HeLa-CEM21 co-culture – HeLa F-luc CTL cells, cherry-picked, counter-screen for HIV-1 Env fusion inhibitor project, dose response (AID 652040); type: functional, cell-based;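 further: potency for signal decrease marking cytotoxic or nonspecific inhibition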
[26] = inhibitors of HIV Env-driven cell fusion, dose response, cherry-pick (AID 652057); type: functional, cell-based
[27] = biological target: FAD-linked sulfhydryl oxidase ALR (Homo sapiens, UniProt P55789); assay: inhibitors of human ALR sulfhydryl oxidase, dose response, biochemical, H2O2 detection, luminescence, cherry-pick (AID 493248)
FAD-linked sulfhydryl oxidase ALR, sequence (P55789 whole entry): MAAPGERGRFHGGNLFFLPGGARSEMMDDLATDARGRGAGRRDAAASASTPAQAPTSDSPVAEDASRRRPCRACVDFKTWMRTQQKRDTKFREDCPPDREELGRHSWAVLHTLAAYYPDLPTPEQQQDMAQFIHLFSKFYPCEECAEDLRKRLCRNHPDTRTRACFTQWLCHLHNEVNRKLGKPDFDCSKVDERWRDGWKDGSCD

SMILES: CN1C(=O)CSc2ccc(NC(=O)N3CCN(c4ccccc4)CC3)cc21
- IC50 [1]: > 80 µM (inactive)

SMILES: Cc1cc2c(cc1C)CSC(c1c(O)ccc3ccccc13)SC2
- EC50 [2]: 1.98 µM (active)
- CC50 [3]: 23 µM (active)
- EC50 [4]: 5.67 µM (active)
- EC50 [5]: 3.41 µM (active)
- AC50 [6]: 2.24 µM (active)
- AC50 [7]: 4.26 µM (active)

SMILES: Cc1cc(C(=O)Nc2ccc(N3CCOCC3)cc2)c2ccccc2n1
- IC50 [8]: > 50 µM (inactive)
- AC50 [9]: 15.8 µM (inconclusive)
- AC50 [10]: inconclusive

SMILES: Cc1ccc(-n2cc(C(=O)c3ccc4ccccc4c3O)cn2)cc1
- AC50 [10]: inconclusive
- AC50 [11]: 1.41 µM (inconclusive)

SMILES: CCCCN=C(S)NNC(=O)c1ccc(Br)o1
- IC50 [12]: > 122 µM (inactive)

SMILES: Oc1cc2c(cc1CN1CCN(c3ncccn3)CC1)OCO2
- EC50 [13]: 92.5 µM (inactive)
- EC50 [14]: 0.106 µM (active)

SMILES: COc1c(NC(C)=O)c2ccccc2c2ccccc12
- AC50 [10]: inconclusive

SMILES: CCOC(=O)N1CCN(C(=O)c2ccc3c(c2)N(Cc2ccc(C)cc2)CCS3)CC1
- AC50 [15]: > 70 µM (inactive)
- AC50 [16]: 6 µM (active)
- AC50 [17]: 2.31 µM (active)

SMILES: Cc1ccc2c(c1)c1c3n2CCN=C3CCC1
- IC50 [18]: 11.9 µM (active)

SMILES: CC(=O)c1ccc(NC(=O)c2cc(CC(C)C)on2)cc1
- IC50 [18]: 12 µM (active)

SMILES: O=C(OCn1nnc2ccccc2c1=O)c1ccc(N2CCOCC2)c([N+](=O)[O-])c1
- IC50 [18]: 10 µM (active)

SMILES: O=C(NCc1ccccc1)c1ccc(Cl)cc1[N+](=O)[O-]
- AC50 [9]: 22.4 µM (inconclusive)
- AC50 [10]: inconclusive
- AC50 [11]: 20 µM (inconclusive)

SMILES: O=C(c1ccco1)N1CCN(Cc2ccccc2Br)CC1
- EC50 [13]: 92.5 µM (inactive)
- EC50 [14]: 5.91 µM (active)

SMILES: O=C1C2C3C=CC(CNS(=O)(=O)c4ccccc4[N+](=O)[O-])(O3)C2C(=O)N1c1ccccc1 (centres undefined)
- AC50 [7]: 25.5 µM (active)

SMILES: Cc1cc(N2CCCC2)ccc1NC(=O)COc1cccc(C(F)(F)F)c1
- IC50 [12]: > 122 µM (inactive)

SMILES: O=C(CN1CCN(Cc2ccc(Cl)cc2)C1=O)NCCCN1CCN(c2ccc(F)cc2)CC1
- AC50 [19]: 27.3 µM (active)
- AC50 [20]: 36 µM (active)

SMILES: Cc1nc2c(C(=O)NCCc3ccccc3)cnn2c(O)c1Cl
- IC50 [21]: > 20 µM (inactive)
- IC50 [22]: > 50 µM (not active)
- IC50 [23]: 44.5 µM (active)
- EC50 [24]: > 53 µM (inactive)

SMILES: C[C@@]12C(=O)N(Cc3ccccc3)CC(=O)N1[C@H]1c3ccccc3OC[C@@H]1[C@@H]2c1ccccc1
- AC50 [25]: 2.27 µM (active)
- AC50 [19]: 6.27 µM (active)
- AC50 [20]: 1.68 µM (active)
- AC50 [26]: 1.65 µM (active)

SMILES: CC(=O)N1CCC(N2CCN(c3ccccc3F)CC2)CC1
- IC50 [8]: > 50 µM (inactive)
- EC50 [13]: 92.4 µM (inactive)
- EC50 [14]: 1.16 µM (active)

SMILES: CCN(CC(=O)NCc1cccs1)S(=O)(=O)c1ccc(C(C)C)cc1
- AC50 [10]: inconclusive

SMILES: O=C(OCCC12CC3CC(CC(C3)C1)C2)c1ccc(NCc2cc(O)ccc2O)cc1
- AC50 [15]: 21.7 µM (active)
- AC50 [16]: 1.82 µM (active)
- AC50 [17]: 5.97 µM (active)

SMILES: C=CCN1CCc2c(cc(O)c(O)c2Cl)C(c2ccccc2)C1 (centres undefined)
- AC50 [27]: 4.74 µM (active)
- EC50 [13]: 92.4 µM (inactive)
- EC50 [14]: 0.203 µM (active)
